Results taken from patent US10473574B2, “Assembly for assessing drug permeability with adjustable biomimetic properties” (Syddansk Universitet, priority 2014, dated 2019).

Assays:
in vitro = assay: in vitro
Experimental: A sheet of cellulose hydrate was prewashed in demineralized water. The sheet was put on a flat surface and sprayed with a 1% (M/M) solution of egg yolk lecithin (E-80, Lipoid GmbH, Ludwigshafen, Germany) in ethanol. […] Once the organic solvent was evaporated, two coated sheets were placed one upon the other, sandwiching the phospholipids.
Frantz cells with a permeation surface of 1 cm^2, a maximum volume in the upper compartment of 1.8 mL and a fixed volume in the bottom compartment of 8 mL were used.
The barrier was placed in between of the donor and the acceptor chamber, and a permeability experiment was performed at 25° C. […]
8 mL of phosphate buffer solution was placed into the lower compartment. The barrier was placed, and at time zero (start of the experiment) 1.5 mL of a 10 mM phosphate buffer solution of calcein was placed in the upper compartment. Every 60 minutes, 0.2 mL of the solution in the lower compartment were withdrawn and calcein concentration quantified by fluorescence spectroscopy. The removed volume was replaced with an equivalent amount of fresh buffer.
For all permeability studies, Franz diffusion cells with a surface area of 1 cm^2, upper chamber nominal volume of 2 mL and lower chamber volume of 8 mL were employed. The donor phase (upper chamber) was filled with 1.5 mL hydrophilic marker calcein (5 mM) and different surfactants and solvents, whereas the acceptor compartment (lower chamber) was filled with 8 mL PBS (7.4±0.05). The barrier was placed between the donor and acceptor compartment and the flux (3) of calcein was measured over time. The permeability studies were carried out over a 5 hours period, and samples of 200 μL were withdrawn from the acceptor chamber every 30 min for the first 2 hours and then every 60 min. The withdrawn sample volume was replaced with an equal amount of fresh PBS at each time point. […]

[1] = Permeability of calcein through the empty barrier support (no lipid layer); format: in vitro ADME; settings: pH 7.4, calcein 5 mM donor, PBS acceptor
Text: It is visible that the permeation of calcein through the empty barrier support is much faster. Specifically, the permeability of calcein is approx. 10 times higher as compared to the barrier of the present invention.

Cn1c(=O)c2c(ncn2C)n(C)c1=O [caffeine]
permeability with FeSSIF as acceptor media versus other acceptor media (in vitro): unchanged

O=C(O)CN(CC(=O)O)Cc1cc2c(cc1O)Oc1cc(O)c(CN(CC(=O)O)CC(=O)O)cc1C21OC(=O)c2ccccc21 [calcein]
change of permeability with Polysorbat 80 (in vitro): not increased, but decreased | influence of lipid composition of the barrier on permeability (in vitro): strong influence | increase of permeability with 5% Cremophor relative to PBS (in vitro; 5 h, 5 mM, pH 7.4): ~2 fold | Papp at 5 h, 5 mM (in vitro; pH 7.4, Papp in PBS): 2.7 ± 0.5 ×10⁻⁶ cm/s | Papp (in vitro; pH 7.4, permeability coefficient (P)): 1.2 ± 0.1 ×10⁻⁶ cm/s | Papp at 5 h, 5 mM [1]: 16.5 ± 1 ×10⁻⁶ cm/s

CC(C)Cc1ccc(C(C)C(=O)O)cc1 (stereo not drawn) [ibuprofen]
influence of lipid composition of the barrier on permeability (in vitro): strong influence

CC(C)(C)NCC(O)COc1cccc2c1CC(O)C(O)C2 (stereo not drawn) [nadolol]
influence of lipid composition of the barrier on permeability (in vitro): strong influence
